# Marks after values point to notes of the source that are not given here.
# Legend:
# APEC O115 = experiment: MIC and MBC determination in M63 media; type: cell-based; conditions: Escherichia coli
# APEC O78-53 = experiment: MIC and MBC determination in M63 media; type: cell-based; conditions: Escherichia coli; APEC O78-53, M63 media
# Method in brief: (§1)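 Bacteria in M63 medium were first normalised to OD600 0.05, then each compound concentration (1 µL) was dosed into 100 µL aliquots. Absorbance at 600 nm was monitored over growth. Wells were subsequently subcultured onto LB agar to determine bactericidal endpoints.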
# APEC O78 [1] = experiment: Crystal violet (CV) uptake assay; type: cell-based, Escherichia coli; conditions: 2X MBC, 30 mins; P < 0.05, Student's t-test
# Experimental: (§2) Membrane permeability assays (crystal violet (CV) uptake and loss of 260/280 nm absorbing materials) were conducted as described previously. […] CV uptake was measured using the formula: (OD DMSO − OD SM/OD DMSO × 100). Two independent experiments in duplicates were conducted.
# [2] = tested on: intracellular APEC O78 in HD11 cells; experiment: Intracellular survival assay; type: cell-based, Escherichia coli; conditions: for minimal effective concentration: Escherichia coli, O78, HD11, 6 h treatment, read-out: SMs intracellular APEC clearance concentration; for intracellular APEC clearance concentration as multiple of MIC (superscript): O78, HD11; for concentration at which the SM significantly (P < 0.01) reduced intracellular APEC (superscript of t-statistic): O78, HD11, 6 h
# Method in brief: (§3)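 Mid-log APEC O78, O1 or O2 infected macrophages (HD11, THP-1) for 1 h and Caco-2 epithelial cells for 3 h at MOI 10 in serum- and antibiotic-free medium. Cells lysed with 0.1% Triton X-100 and viable intracellular bacteria counted on LB agar, compared with 1% DMSO wells; two experiments in duplicate.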
# [3] = tested on: intracellular APEC O2 in THP-1 cells; experiment: Intracellular survival assay; type: cell-based, Escherichia coli; conditions: for minimal effective concentration: Escherichia coli, O2, THP-1, 6 h treatment, read-out: SMs intracellular APEC clearance concentration; for concentration at which the SM significantly (P < 0.01) reduced intracellular APEC (superscript of t-statistic): O2, THP-1, 6 h
# Method in brief: as §3
# [4] = tested on: intracellular APEC O78 in THP-1 cells; experiment: Intracellular survival assay; type: cell-based, Escherichia coli; conditions: for minimal effective concentration: Escherichia coli, O78, THP-1, 6 h treatment, read-out: SMs intracellular APEC clearance concentration; for intracellular APEC clearance concentration as multiple of MIC (superscript): O78, THP-1; for concentration at which the SM significantly (P < 0.01) reduced intracellular APEC (superscript of t-statistic): O78, THP-1, 6 h
# Method in brief: as §3
# [5] = tested on: intracellular APEC O1 in Caco-2 cells; experiment: Intracellular survival assay; type: cell-based, Escherichia coli; conditions: for minimal effective concentration: Escherichia coli, O1, Caco-2, 6 h treatment, read-out: SMs intracellular APEC clearance concentration; for concentration at which the SM significantly (P < 0.01) reduced intracellular APEC (superscript of t-statistic): O1, Caco-2, 6 h
# Method in brief: as §3
# [6] = tested on: intracellular APEC O2 in Caco-2 cells; experiment: Intracellular survival assay; type: cell-based, Escherichia coli; conditions: for minimal effective concentration: Escherichia coli, O2, Caco-2, 6 h treatment, read-out: SMs intracellular APEC clearance concentration; for intracellular APEC clearance concentration as multiple of MIC (superscript): O2, Caco-2; for concentration at which the SM significantly (P < 0.01) reduced intracellular APEC (superscript of t-statistic): O2, Caco-2, 6 h
# Method in brief: as §3
# [7] = tested on: intracellular APEC O1 in THP-1 cells; experiment: Intracellular survival assay; type: cell-based, Escherichia coli; conditions: for minimal effective concentration: Escherichia coli, O1, THP-1, 6 h treatment, read-out: SMs intracellular APEC clearance concentration; for concentration at which the SM significantly (P < 0.01) reduced intracellular APEC (superscript of t-statistic): O1, THP-1, 6 h
# Method in brief: as §3
# [8] = tested on: intracellular APEC O78 in Caco-2 cells; experiment: Intracellular survival assay; type: cell-based, Escherichia coli; conditions: for minimal effective concentration: Escherichia coli, O78, Caco-2, 6 h treatment, read-out: SMs intracellular APEC clearance concentration; for intracellular APEC clearance concentration as multiple of MIC (superscript): O78, Caco-2; for concentration at which the SM significantly (P < 0.01) reduced intracellular APEC (superscript of t-statistic): O78, Caco-2, 6 h
# Method in brief: as §3
# [9] = tested on: intracellular APEC O2 in HD11 cells; experiment: Intracellular survival assay; type: cell-based, Escherichia coli; conditions: for minimal effective concentration: Escherichia coli, O2, HD11, 6 h treatment, read-out: SMs intracellular APEC clearance concentration; for intracellular APEC clearance concentration as multiple of MIC (superscript): O2, HD11; for concentration at which the SM significantly (P < 0.01) reduced intracellular APEC (superscript of t-statistic): O2, HD11, 6 h
# Method in brief: as §3
# [10] = tested on: intracellular APEC O1 in HD11 cells; experiment: Intracellular survival assay; type: cell-based, Escherichia coli; conditions: for minimal effective concentration: Escherichia coli, O1, HD11, 6 h treatment, read-out: SMs intracellular APEC clearance concentration; for concentration at which the SM significantly (P < 0.01) reduced intracellular APEC (superscript of t-statistic): O1, HD11, 6 h
# Method in brief: as §3
# APEC O8 = experiment: MIC and MBC determination in M63 media; type: cell-based; conditions: Escherichia coli
# APEC O2-211 = experiment: MIC and MBC determination in M63 media; type: cell-based; conditions: Escherichia coli; APEC O2-211, M63 media
# APEC O78 [11] = experiment: MIC and MBC determination in M63 media; type: cell-based, Escherichia coli; conditions: for MIC / MBC: Escherichia coli; for MBC: subculture on LB agar
# Method in brief: as §1
# APEC O2 = experiment: MIC and MBC determination in M63 media; type: cell-based; conditions: Escherichia coli
# APEC O109 = experiment: MIC and MBC determination in M63 media; type: cell-based; conditions: Escherichia coli
# APEC O78 [12] = experiment: Loss of 260/280 nm absorbing materials assay; type: cell-based, Escherichia coli; conditions: 2X MBC, 1 h; for Absorbance 280 nm of treated supernatant: DMSO 2.58; for Absorbance 280 nm of treated supernatant / Absorbance 260 nm of treated supernatant: superscript a P < 0.05 vs DMSO; for Absorbance 260 nm of treated supernatant: DMSO 3.77
# Experimental: as §2
# APEC O78 [13] = experiment: Bacterial cytological profiling by confocal microscopy; type: cell-based, Escherichia coli; conditions: 2X MBC, 2 h
# Method in brief: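 After compound treatment, bacteria were washed, resuspended in PBS and stained with FM4-64 (1 µg/mL) and SYTO-9 (5 µM) for 45 mins at room temperature with shaking. Cells were then concentrated 10-fold in PBS and imaged by confocal microscopy to profile the pathways targeted.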
smiles,measurement,setting,value
CC(=O)OC(C(Br)C(=O)c1ccc([N+](=O)[O-])cc1)C(Cl)(Cl)Cl (stereo not shown) [SM10],MBC,APEC O115,50 µM
same,MIC,APEC O115,25 µM
same,MBC,APEC O78-53,50 µM
same,MIC,APEC O78-53,25 µM
same,uptake of crystal violet compared with DMSO,APEC O78 [1],increased the uptake of crystal violet
same,minimal effective concentration,[2],50 µM
same,intracellular APEC clearance concentration as multiple of MIC (superscript),[2],b (2X MIC)
same,concentration at which the SM significantly (P < 0.01) reduced intracellular APEC (superscript of t-statistic),[2],c (2XMIC)
same,minimal effective concentration,[3],50 µM
same,concentration at which the SM significantly (P < 0.01) reduced intracellular APEC (superscript of t-statistic),[3],b (1X MIC)
same,minimal effective concentration,[4],100 µM
same,intracellular APEC clearance concentration as multiple of MIC (superscript),[4],c (4X MIC)
same,concentration at which the SM significantly (P < 0.01) reduced intracellular APEC (superscript of t-statistic),[4],b (1X MIC)
same,minimal effective concentration,[5],100 µM
same,intracellular APEC clearance concentration as multiple of MIC (superscript),"[5]; O1, Caco-2",c (4X MIC)
same,concentration at which the SM significantly (P < 0.01) reduced intracellular APEC (superscript of t-statistic),[5],b (1X MIC)
same,minimal effective concentration,[6],100 µM
same,intracellular APEC clearance concentration as multiple of MIC (superscript),[6],c (4X MIC)
same,concentration at which the SM significantly (P < 0.01) reduced intracellular APEC (superscript of t-statistic),[6],b (1X MIC)
same,minimal effective concentration,[7],> 100 µM
same,concentration at which the SM significantly (P < 0.01) reduced intracellular APEC (superscript of t-statistic),[7],b (1X MIC)
same,minimal effective concentration,[8],100 µM
same,intracellular APEC clearance concentration as multiple of MIC (superscript),[8],c (4X MIC)
same,concentration at which the SM significantly (P < 0.01) reduced intracellular APEC (superscript of t-statistic),[8],b (1X MIC)
same,minimal effective concentration,[9],100 µM
same,intracellular APEC clearance concentration as multiple of MIC (superscript),[9],c (4X MIC)
same,concentration at which the SM significantly (P < 0.01) reduced intracellular APEC (superscript of t-statistic),[9],b (1X MIC)
same,minimal effective concentration,[10],> 100 µM
same,concentration at which the SM significantly (P < 0.01) reduced intracellular APEC (superscript of t-statistic),[10],b (1X MIC)
same,MBC,APEC O8,50 µM
same,MIC,APEC O8,50 µM
same,MBC,APEC O2-211,50 µM
same,MIC,APEC O2-211,25 µM
same,MIC,APEC O78 [11],25 µM
same,MBC,APEC O78 [11],50 µM
same,MBC,APEC O2,50 µM
same,MIC,APEC O2,25 µM
same,MBC,APEC O109,50 µM
same,MIC,APEC O109,25 µM
same,260 nm absorbing materials in supernatant compared with DMSO,APEC O78 [12],"significantly (P < 0.05, Student’s t-test) increased"
same,280 nm absorbing materials in supernatant compared with DMSO,APEC O78 [12],"significantly (P < 0.05, Student’s t-test) increased"
same,Absorbance 280 nm of treated supernatant,APEC O78 [12],2.73^a
same,Absorbance 260 nm of treated supernatant,APEC O78 [12],3.98^a
same,cytological profile (FM4-64 / SYTO-9 staining),APEC O78 [13],filamentous or short rods (spheroplasts) morphology (PG synthesis inhibitors)
COc1ccc(CCN(Cc2cc3c(cc2Cl)OCO3)CC2CCN(C)CC2)cc1 [SM11],MBC,APEC O115,200 µM
same,MIC,APEC O115,200 µM
same,MBC,APEC O78-53,200 µM
same,MIC,APEC O78-53,100 µM
same,uptake of crystal violet compared with DMSO,APEC O78 [1],increased the uptake of crystal violet
same,minimal effective concentration,[2],100 µM
same,intracellular APEC clearance concentration as multiple of MIC (superscript),[2],a (1X MIC)
same,concentration at which the SM significantly (P < 0.01) reduced intracellular APEC (superscript of t-statistic),[2],a (0.5X MIC)
same,minimal effective concentration,[3],100 µM
same,concentration at which the SM significantly (P < 0.01) reduced intracellular APEC (superscript of t-statistic),[3],a (0.5X MIC)
same,minimal effective concentration,[4],100 µM
same,intracellular APEC clearance concentration as multiple of MIC (superscript),[4],a (1X MIC)
same,concentration at which the SM significantly (P < 0.01) reduced intracellular APEC (superscript of t-statistic),[4],a (0.5X MIC)
same,minimal effective concentration,[5],> 200 µM
same,concentration at which the SM significantly (P < 0.01) reduced intracellular APEC (superscript of t-statistic),[5],b (1X MIC)
same,minimal effective concentration,[6],200 µM
same,intracellular APEC clearance concentration as multiple of MIC (superscript),[6],b (2X MIC)
same,concentration at which the SM significantly (P < 0.01) reduced intracellular APEC (superscript of t-statistic),[6],b (1X MIC)
same,minimal effective concentration,[7],> 200 µM
same,concentration at which the SM significantly (P < 0.01) reduced intracellular APEC (superscript of t-statistic),[7],b (1X MIC)
same,minimal effective concentration,[8],100 µM
same,intracellular APEC clearance concentration as multiple of MIC (superscript),[8],a (1X MIC)
same,concentration at which the SM significantly (P < 0.01) reduced intracellular APEC (superscript of t-statistic),[8],b (1X MIC)
same,minimal effective concentration,[9],200 µM
same,intracellular APEC clearance concentration as multiple of MIC (superscript),[9],b (2X MIC)
same,concentration at which the SM significantly (P < 0.01) reduced intracellular APEC (superscript of t-statistic),[9],a (0.5X MIC)
same,minimal effective concentration,[10],200 µM
same,concentration at which the SM significantly (P < 0.01) reduced intracellular APEC (superscript of t-statistic),[10],b (1X MIC)
same,MBC,APEC O8,200 µM
same,MIC,APEC O8,200 µM
same,MBC,APEC O2-211,100 µM
same,MIC,APEC O2-211,100 µM
same,MBC relative to MIC,APEC O78 [11],identical to MIC
same,MIC,APEC O78 [11],100 µM
same,MBC,APEC O78 [11],100 µM
same,MBC,APEC O2,200 µM
same,MIC,APEC O2,100 µM
same,MBC,APEC O109,200 µM
same,MIC,APEC O109,200 µM
same,260 nm absorbing materials in supernatant compared with DMSO,APEC O78 [12],"significantly (P < 0.05, Student’s t-test) increased"
same,280 nm absorbing materials in supernatant compared with DMSO,APEC O78 [12],"significantly (P < 0.05, Student’s t-test) increased"
same,Absorbance 280 nm of treated supernatant,APEC O78 [12],2.89^a
same,Absorbance 260 nm of treated supernatant,APEC O78 [12],4.00^a
same,cytological profile (FM4-64 / SYTO-9 staining),APEC O78 [13],bright red foci at random positions throughout the cell indicating membrane defects (membrane pore formers)
